Results published in ChEMBL document CHEMBL2176958, “Novel aromatase inhibitors by structure-guided design” (J Med Chem, 2012).

Columns and labels:
[1] = (§1) Cytotoxicity against human MCF7a cells expressing Tet-off-3betaHSD1-Arom assessed as inhibition of TST-stimulated cell proliferation measured after 10 days; assay type: functional, cell-based; conditions: 240 h
MCF7a = experiment: as §1; assay type: functional, cell-based
Aromatase = biological target: T1, Aromatase (Homo sapiens, UniProt P11511); experiment: Inhibition of human placental aromatase using [3H]-1beta-androstenedione as substrate after 16 hrs by [3H]-water method; conditions: for inhibition (INH): human, 16 h
T1 sequence (P11511 whole entry): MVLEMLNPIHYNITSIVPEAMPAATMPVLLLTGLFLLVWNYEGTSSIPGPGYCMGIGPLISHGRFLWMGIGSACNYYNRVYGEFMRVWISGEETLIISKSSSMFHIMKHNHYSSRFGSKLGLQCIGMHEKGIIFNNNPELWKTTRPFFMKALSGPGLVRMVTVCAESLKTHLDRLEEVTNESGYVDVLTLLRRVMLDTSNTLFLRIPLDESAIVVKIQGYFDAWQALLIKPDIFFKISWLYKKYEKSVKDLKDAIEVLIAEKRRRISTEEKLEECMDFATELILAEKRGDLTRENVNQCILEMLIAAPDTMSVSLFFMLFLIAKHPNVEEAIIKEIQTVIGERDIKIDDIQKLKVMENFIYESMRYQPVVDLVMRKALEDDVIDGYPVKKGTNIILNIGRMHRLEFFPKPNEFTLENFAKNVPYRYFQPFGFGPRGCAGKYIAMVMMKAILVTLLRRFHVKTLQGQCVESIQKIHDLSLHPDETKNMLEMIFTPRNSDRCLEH

| SMILES | EC50 [1] | inhibition (MCF7a) | inhibition (INH) (Aromatase) | IC50 (Aromatase) |
| --- | --- | --- | --- | --- |
| CCC#CCO[C@@H]1C[C@@H]2[C@H](CC[C@]3(C)C(=O)CC[C@@H]23)[C@@]2(C)C=CC(=O)C=C12 | 0.03 nM | Dose-dependent effect | Dose-dependent effect | – |
| CCCCCCCC#CCO[C@@H]1C[C@@H]2[C@H](CC[C@]3(C)C(=O)CC[C@@H]23)[C@@]2(C)C=CC(=O)C=C12 | – | Dose-dependent effect | Dose-dependent effect | 2180 nM |
| CCO[C@@H]1C[C@@H]2[C@H](CC[C@]3(C)C(=O)CC[C@@H]23)[C@@]2(C)C=CC(=O)C=C12 | – | – | Dose-dependent effect | 18100 nM |
| C[C@]12CCC(=O)C(O)=C1CC[C@@H]1[C@@H]2CC[C@]2(C)C(=O)CC[C@@H]12 [FORMESTANE] | – | – | Dose-dependent effect | 48.6 nM |
| CCCCC#CCO[C@@H]1C[C@@H]2[C@H](CC[C@]3(C)C(=O)CC[C@@H]23)[C@@]2(C)C=CC(=O)C=C12 | 5.4 nM | Dose-dependent effect | Dose-dependent effect | 181 nM |
| C[C@]12C=CC(=O)C=C1[C@H](OCC#CCO)C[C@@H]1[C@@H]2CC[C@]2(C)C(=O)CC[C@@H]12 | 0.3 nM | Dose-dependent effect | Dose-dependent effect | 20 nM |
| CCCC#CCO[C@@H]1C[C@@H]2[C@H](CC[C@]3(C)C(=O)CC[C@@H]23)[C@@]2(C)C=CC(=O)C=C12 | 3.4 nM | Dose-dependent effect | Dose-dependent effect | 83 nM |
| CC#CCO[C@@H]1C[C@@H]2[C@H](CC[C@]3(C)C(=O)CC[C@@H]23)[C@@]2(C)C=CC(=O)C=C12 | 1.7 nM | Dose-dependent effect | Dose-dependent effect | 112 nM |
| N#Cc1ccc(C(c2ccc(C#N)cc2)n2cncn2)cc1 [LETROZOLE] | 0.004 nM | – | Dose-dependent effect | – |
| CO[C@@H]1C[C@@H]2[C@H](CC[C@]3(C)C(=O)CC[C@@H]23)[C@@]2(C)C=CC(=O)C=C12 | – | – | Dose-dependent effect | 5200 nM |
